Like-named read-outs stand apart in the source and are kept apart here.
Assays:
[1] = system: larvae of the mustard beetle (Phaedon cochleariae); test: Phaedon test (PHAECO spray treatment); details: for pest or weed control at 100 g/ha: Phaedon cochleariae, in Brassica rapa, foliar, read-out: effect in % (beetle larvae killed)
[2] = log P determination by HPLC (EEC Directive 79/831 Annex V.A8); assay type: physicochemical
Method: The measurements were carried out using an Agilent 1100 LC system with a 50*4.6 Zorbax Eclipse C18 1.8 μm column (oven temperature 55° C., flow rate 2.0 ml/min).
The following mobile phases were used:
Mobile phase A: acetonitrile+1000 μl of formic acid/l
Mobile phase B: Millipore water+900 μl of formic acid/l

[3] = system: caterpillars of the armyworm (Spodoptera frugiperda); test: Spodoptera frugiperda test (SPODFR spray treatment); assay type: in vivo; details: for pest or weed control at 100 g/ha: Spodoptera frugiperda, foliar, read-out: effect in % (caterpillars killed)
Description: Solvent: 78.0 parts by weight of acetone

[4] = reversed-phase HPLC, Zorbax Eclipse C18 column, by HPLC according to EEC Directive 79/831 Annex V.A8, read-out: log P
[5] = application rate 100 g/ha, maize leaf discs
[6] = reversed-phase HPLC, Zorbax Eclipse C18 column, determined by HPLC according to EEC Directive 79/831 Annex V.A8, read-out: log P

Row | Structure (SMILES) | pest or weed control at 100 g/ha ([3]; in Zea mays) [%] | chromatographic logP ([2]; log P) | further results
1 | Cc1cc(Cl)cc(C(=O)NC(C)C)c1NC(=O)c1cc(Cn2nnc(-c3ccc(Br)cc3)n2)nn1-c1ncccc1Cl | – | – | Kill in %/7 days ([1]; 0.8 g/ha): 0%
2 | Cc1cc(Cl)cc(C(=O)NC(C)C)c1NC(=O)c1cc(Cn2nnc(C(F)(F)C(F)(F)C(F)(F)F)n2)nn1-c1ncccc1Cl [Example 1, 2-(3-chloropyridin-2-yl)-5-(5-heptafluoropropyltetrazol-2-ylmethyl)-2H-pyrazole-3-carboxylic acid (4-chloro-2-isopropylcarbamoyl-6-methylphenyl)amide] | ≥ 80 | – | pest or weed control at 100 g/ha [1]: ≥ 80%; chromatographic logP ([2]; HPLC, acetonitrile/water with formic acid, read-out: log P): 4.23
3 | Cc1cc(Cl)cc(C(=O)NC2CC2)c1NC(=O)c1cc(Cn2nnc(C(F)(F)C(F)(F)C(F)(F)F)n2)nn1-c1ncccc1Cl [Example 4] | ≥ 80 | – | pest or weed control at 100 g/ha [1]: ≥ 80%; chromatographic logP ([2]; by HPLC according to EEC Directive 79/831 Annex V.A8, read-out: log P): 3.96
4 | CNC(=O)c1cc(C#N)cc(C)c1NC(=O)c1cc(Cn2nnc(C(F)(F)F)n2)nn1-c1ncccc1Cl [Example 12] | ≥ 80 | – | pest or weed control at 100 g/ha [1]: ≥ 80%; chromatographic logP [2, 4]: 2.66
5 | CSC[C@H](C)NC(=O)c1cc(C#N)cc(C)c1NC(=O)c1cc(Cn2nnc(C(F)(F)F)n2)nn1-c1ncccc1Cl [Example 14] | ≥ 80 | 3.28 | pest or weed control at 100 g/ha [1]: ≥ 80%
6 | CCNC(=O)c1cc(F)cc(C)c1NC(=O)c1cc(Cn2nnc(C(F)(F)F)n2)nn1-c1ncccc1Cl [Example 35] | ≥ 80 | 2.88 | –
7 | Cc1cc(F)cc(C(=O)NC2CCC2)c1NC(=O)c1cc(Cn2nnc(C(F)(F)F)n2)nn1-c1ncccc1Cl [Example 51] | ≥ 80 | 3.23 | –
8 | Cc1cc(I)cc(C(=O)NC2CCC2)c1NC(=O)c1cc(Cn2nnc(C(F)(F)F)n2)nn1-c1ncccc1Cl [Example 72] | – | 3.85 | pest or weed control at 100 g/ha [1]: ≥ 80%
9 | Cc1cc(C#N)cc(C(=O)NC(C)CC(F)(F)F)c1NC(=O)c1cc(Cn2nnc(C(F)(F)F)n2)nn1-c1ncccc1Cl (stereo not shown) [Example 75] | – | 3.38 | pest or weed control at 100 g/ha [1]: ≥ 80%
10 | Cc1cc(C)c(NC(=O)c2cc(Cn3nnc(C(F)(F)F)n3)nn2-c2ncccc2Cl)c(C(=O)NC(C)C)c1 [Example 79] | ≥ 80 | 3.29 | –
11 | Cc1cc(C)c(NC(=O)c2cc(Cn3nnc(C(F)(F)F)n3)nn2-c2ncccc2Cl)c(C(=O)NCC2CC2)c1 [Example 83] | ≥ 80 | 3.35 | –
12 | Cc1cc(C#N)cc(C(=O)NCC2CCCCC2)c1NC(=O)c1cc(Cn2nnc(C(F)(F)F)n2)nn1-c1ncccc1Cl [Example 93] | – | 3.96 | pest or weed control at 100 g/ha [1]: ≥ 80%
13 | Cc1cc(Cl)cc(C(N)=O)c1NC(=O)c1cc(Cn2nnc(C(F)(F)F)n2)nn1-c1ncccc1Cl [Example 106] | ≥ 80 | 2.76 | –
14 | Cc1cc(I)cc(C(=O)NC(C)(C)C)c1NC(=O)c1cc(Cn2nnc(C(F)(F)F)n2)nn1-c1ncccc1Cl [Example 118] | ≥ 80 | 4.12 | –
15 | Cc1cc(C#N)cc(C(=O)NCC2CC2(Cl)Cl)c1NC(=O)c1cc(Cn2nnnc2C(F)(F)F)nn1-c1ncccc1Cl (stereo not shown) [Example 190] | ≥ 80 | 3.16 | –
16 | Cc1cc(C#N)cc(C(=O)NC(C)C2CCC2)c1NC(=O)c1cc(Cn2nnnc2C(F)(F)F)nn1-c1ncccc1Cl (stereo not shown) [Example 194] | – | 3.25 | pest or weed control at 100 g/ha [1]: ≥ 80%
17 | CSC[C@H](C)NC(=O)c1cc(C#N)cc(C)c1NC(=O)c1cc(Cn2nnc(C(F)F)n2)nn1-c1ncccc1Cl [Example 268] | ≥ 80 | 2.77 | –
18 | Cc1cc(I)cc(C(=O)NC2CC2)c1NC(=O)c1cc(Cn2nnc(C(F)F)n2)nn1-c1ncccc1Cl [Example 275] | ≥ 80 | 2.96 | –
19 | CSC[C@H](C)NC(=O)c1cc(I)cc(C)c1NC(=O)c1cc(Cn2nnc(C(F)F)n2)nn1-c1ncccc1Cl [Example 278] | ≥ 80 | 3.41 | –
20 | CCNC(=O)c1cc(Cl)cc(Cl)c1NC(=O)c1cc(Cn2nnc(C(F)F)n2)nn1-c1ncccc1Cl [Example 285] | ≥ 80 | 2.7 | –
21 | CSC[C@H](C)NC(=O)c1cc(Cl)cc(Cl)c1NC(=O)c1cc(Cn2nnc(C(F)F)n2)nn1-c1ncccc1Cl [Example 288] | ≥ 80 | 3.13 | –

Row | Structure (SMILES) | pest or weed control at 100 g/ha ([3]; in Zea mays) [%] | chromatographic logP ([2]; log P) | further results
22 | CNC(=O)c1cc(F)cc(C)c1NC(=O)c1cc(Cn2nnc(C(F)F)n2)nn1-c1ncccc1Cl [Example 292] | ≥ 80 | 2.21 | –
23 | Cc1cc(F)cc(C(=O)NC(C)C2CC2)c1NC(=O)c1cc(Cn2nnc(C(F)F)n2)nn1-c1ncccc1Cl (stereo not shown) [Example 293] | ≥ 80 | 2.92 | –
24 | Cc1cc(F)cc(C(=O)NC2CC2)c1NC(=O)c1cc(Cn2nnc(C(F)F)n2)nn1-c1ncccc1Cl [Example 294] | ≥ 80 | 2.41 | –
25 | Cc1cc(Br)cc(C(=O)NC(C)C)c1NC(=O)c1cc(Cn2nnc(C(F)F)n2)nn1-c1ncccc1Cl [Example 299] | ≥ 80 | 3.08 | –
26 | Cc1cc(C#N)cc(C(N)=O)c1NC(=O)c1cc(Cn2nnc(C(F)F)n2)nn1-c1ncccc1Cl [Example 306] | ≥ 80 | 1.97 | –
27 | Cc1cc(I)cc(C(=O)NC(C)(C)C)c1NC(=O)c1cc(Cn2nnc(C(F)F)n2)nn1-c1ncccc1Cl [Example 307] | ≥ 80 | 3.5 | –
28 | Cc1cc(C#N)cc(C(N)=O)c1NC(=O)c1cc(Cn2nnc(C(F)(F)F)n2)nn1-c1ncccc1Br [Example 324] | – | – | chromatographic logP [2, 4]: 2.46; pest or weed control at 100 g/ha [3, 5]: ≥ 80%
29 | Cc1cc(C#N)cc(C(=O)NC(C)C#N)c1NC(=O)c1cc(Cn2nnc(C(F)(F)F)n2)nn1-c1ncccc1Cl (stereo not shown) [Example 326] | ≥ 80 | 2.76 | –
30 | CCOC1CCC(NC(=O)c2cc(C#N)cc(C)c2NC(=O)c2cc(Cn3nnc(C(F)(F)F)n3)nn2-c2ncccc2Cl)CC1 (stereo not shown) [Example 344] | – | – | pest or weed control at 100 g/ha [1]: ≥ 80%; chromatographic logP [2, 4]: 3.6
31 | Cc1cc(Br)cc(C(=O)NC(C)(C)C)c1NC(=O)c1cc(Cn2nnnc2C(F)(F)F)nn1-c1ncccc1C(F)(F)F [Example 458] | – | – | chromatographic logP [2, 6]: 3.78; pest or weed control at 100 g/ha [3, 5]: ≥ 80%
32 | Cc1cc(C#N)cc(C(=O)NC(C)(C)C)c1NC(=O)c1cc(Cn2nnnc2C(F)(F)F)nn1-c1ccccc1Cl [Example 489] | – | – | chromatographic logP [2, 6]: 3.52; pest or weed control at 100 g/ha [3, 5]: ≥ 80%
33 | CNC(=O)c1cc(Cl)cc(C)c1NC(=O)c1cc(Cn2nnnc2C(F)(F)F)nn1-c1ccccc1 [Example 502] | – | – | chromatographic logP [2, 6]: 2.84; pest or weed control at 100 g/ha [3, 5]: ≥ 80%
34 | Cc1cc(Cl)cc(C(=O)NC(C)(C)C)c1NC(=O)c1cc(Cn2nnc(C(F)(F)F)n2)nn1-c1ccccc1Cl [Example 534] | – | – | chromatographic logP [2, 6]: 4.36; pest or weed control at 100 g/ha [3, 5]: ≥ 80%
35 | Cc1cc(Cl)cc(C(=O)NC(C)(C)C)c1NC(=O)c1cc(Cn2nnnc2C(F)(F)C(F)(F)F)nn1-c1ccccc1Cl [Example 536] | – | – | chromatographic logP [2, 6]: 4.41; pest or weed control at 100 g/ha [3, 5]: ≥ 80%
36 | Cc1cc(Cl)cc(C(=O)NC(C)C)c1NC(=O)c1cc(Cn2nnc(C(F)(F)C(F)(F)F)n2)nn1-c1ncccc1Cl [drawing 595] | – | – | Kill in %/7 days ([1]; 0.8 g/ha): 100%
37 | CNC(=O)c1cc(Cl)cc(C)c1NC(=O)c1cc(Cn2nnnc2C(F)(F)F)nn1-c1ncccc1Cl [drawing 597] | – | – | Kill in %/7 days ([1]; 4 g/ha): 67%
38 | CNC(=O)c1cc(Cl)cc(C)c1NC(=O)c1cc(Cn2nnnc2-c2ccc(C(F)(F)F)cc2)nn1-c1ncccc1Cl [drawing 598] | – | – | Kill in %/7 days ([1]; 4 g/ha): 0%
39 | Cc1cc(Cl)cc(C(=O)NC(C)C)c1NC(=O)c1cc(Cn2nnc(C(F)(F)C(F)(F)F)n2)nn1-c1ncccc1Cl [drawing 599] | – | – | Kill in %/7 days ([3]; 0.8 g/ha): 100%
40 | CNC(=O)c1cc(Cl)cc(C)c1NC(=O)c1cc(Cn2nnnc2C(F)(F)F)nn1-c1ncccc1Cl [drawing 601] | – | – | Kill in %/7 days ([3]; 4 g/ha): 100%
41 | CNC(=O)c1cc(Cl)cc(C)c1NC(=O)c1cc(Cn2nnnc2-c2ccc(C(F)(F)F)cc2)nn1-c1ncccc1Cl [drawing 602] | – | – | Kill in %/7 days ([3]; 4 g/ha): 33%
